From EP0079397A1, “Asymmetrically substituted (2,4,6-triodoanilides) of dicarboxylic acids, their preparation and X-ray contrast agents containing them” (SCHERING AKTIENGESELLSCHAFT, priority 1981, dated 1983)
Like-named read-outs stand apart in the source and are kept apart here. Each block holds one compound with its values, some of them ahead of it.

Legend:
Ratte [1] = assay: Neural tolerance after intracisternal injection in rats; format: in vivo; conditions: injection into Cisterna suboccipitalis, 200-250 g rats, diluted with 3% mannitol solution
Experimental: (§1) • 1) Injektion der Kontrastmittel als Megluminsalzlösungen mit 180 mg Jod/ml mit einer Geschwindigkeit von 0,8 ml/min bei 100 g schweren männlichen und weiblichen Ratten. • 2) Männlichen und weiblichen Ratten im Gewicht von etwa 100 g wurden in leichter Äthernarkose je 0,04 ml unterschiedlich konzentrierter Kontrastmittellösungen nach der Methode von Valzelli durch eine natürliche Knochenspalte des Schädels zwischen Joch- und Hinterhauptbein intrazerebral injiziert. Die Injektion erfolgte mit einer Hamilton Spritze 710 N, bei der die Einstichtiefe auf 10 mm begrenzt ist. Je Präparat wurden mindestens 4 Dosierungen an 10 Tieren untersucht. Als Wirkungskriterien wurden über den Zeitraum von 24 Stunden Exzitationszustände, schwere Haltungsanomalien, Koma und Tod bewertet. • 3) Bei grundsätzlich gleicher Versuchsanlage wie unter 2) beschrieben, wurden 200-250 g schweren Ratten die Kontrastmittel in die Cisterna suboccipitalis injiziert. Die Kontrastmittel wurden mit 3%iger Mannit-lösung verdünnt, um den osmotischen Druck anzupassen. • 4) Ratten (ca. 150 g Körpergewicht) wurde in Ithernarkose ein Polyäthylenschlauch in den Ductus choledochus eingebunden. […]

[2] = Partition coefficient butanol/water; format: physicochemical; conditions: meglumine salts
Ratte [3] = assay: Acute intravenous toxicity (DL50) in rats; format: in vivo; conditions: meglumine salt solutions 180 mg Jod/ml, 0,8 ml/min, 100 g rats
Experimental: as §1

Ratte [4] = assay: Neural tolerance after pericerebral injection in rats (method of Valzelli); format: in vivo; conditions: 0,04 ml injected, ca. 100 g rats, 24 h observation: excitation, posture anomalies, coma, death
Experimental: as §1

in vivo [5] = assay: in vivo; parameters: species or system Ratte; conditions: rat, iv, 60 mg/kg
Experimental: • 1) Injektion der Kontrastmittel als Megluminsalzlösungen mit 180 mg Jod/ml mit einer Geschwindigkeit von 0,8 ml/min bei 100 g schweren männlichen und weiblichen Ratten. • 2) Männlichen und weiblichen Ratten im Gewicht von etwa 100 g wurden in leichter Äthernarkose je 0,04 ml unterschiedlich konzentrierter Kontrastmittellösungen nach der Methode von Valzelli durch eine natürliche Knochenspalte des Schädels zwischen Joch- und Hinterhauptbein intrazerebral injiziert. Die Injektion erfolgte mit einer Hamilton Spritze 710 N, bei der die Einstichtiefe auf 10 mm begrenzt ist. Je Präparat wurden mindestens 4 Dosierungen an 10 Tieren untersucht. Als Wirkungskriterien wurden über den Zeitraum von 24 Stunden Exzitationszustände, schwere Haltungsanomalien, Koma und Tod bewertet. • 3) Bei grundsätzlich gleicher Versuchsanlage wie unter 2) beschrieben, wurden 200-250 g schweren Ratten die Kontrastmittel in die Cisterna suboccipitalis injiziert. Die Kontrastmittel wurden mit 3%iger Mannit-lösung verdünnt, um den osmotischen Druck anzupassen. • 4) Ratten (ca. 150 g Körpergewicht) wurde in Ithernarkose ein Polyäthylenschlauch in den Ductus choledochus eingebunden. Etwa eine Stunde nachdem die Tiere aus der Narkose erwacht waren, wurden die Kontrastmittel in einer Dosis von 60 mg Jod/kg intravenös injiziert und die Galle bis 3 Stunden nach der Injektion fraktioniert gesammelt. • 5) Intakten Ratten von etwa 100 g Körpergewicht wurde 20 Minuten vor der Verabreichung des Kontrastmittels 5 ml Wasser und dann in 1-stündigem Abstand nach der Verabreichung der Prüfsubstanzen 3 mal je 2 ml Wasser oral verabreicht. bis 3 Stunden nach der i.v. Injektion des Kontrastmittels in einer Dosis von 60 mg Jod/kg wurde der Harn quantitativ gesammelt. • 4), 5) die Messung des Kontrastmittels erfolgte entweder aufgrund der ^131J-Aktivität in den Proben oder bei nicht radioaktiv markierten Kontrastmitteln mit Hilfe der Röntgenfluoreszenz des Jods.

[6] = Protein binding to human serum; format: in vitro ADME; conditions: at ca. 1,2 mg Jod/ml, meglumine salts, read-out: Proteinbindung an Humanserum (converted)
Leber [7] = conditions: man; cited from earlier work
Leber [8] = conditions: dog; cited from earlier work
Leber des Hundes = assay: Maximum enrichment in dog liver by computed tomography; conditions: 360 mg Jod/kg i.v.; for maximale Anreicherung in der Leber des Hundes: meglumine salt solutions 180 mg Jod/ml, CT up to 90 min
Experimental: (§2) Die Werte wurden an gesunden weiblichen und männlichen Beagle-Hunden (Züchter: Schering) im Gewicht von 9-14 kg ermittelt.
(§3) Die Megluminsalzlösungen enthielten 180 mg Jod/ml.
(§4) Die Scanzeit betrug 20 Sekunden, die Röhrenspannung 120 kV. Bei einer Bildmatrix von 320 x 320 Elementen betrug die Standardabweichung vom Mittelwert eines normierten Wasserphantoms 1,6 % (d.h. + 8 EU = EMI-Units.
(§5) Die Auswertung der Computertomogramme stets des gleichen Leberareals erfolgte mit Hilfe der Auswerteeinheit "IVC" der Fa. EMI.

in vivo [9] = conditions: dog, iv
Experimental: as §2, §3, §4, §5

SMILES: O=C(CCCCC(=O)Nc1c(I)cc(I)c(C(=O)O)c1I)Nc1c(I)cc(I)c(C(=O)O)c1I [B, Iodipamid]
Ratte, intrazisternal, ED50 (Ratte [1]): 1,07 (0,54-1,83) mg Jod/kg
Verteilungskoeffizient Butanol/Wasser pH 7.4 [2]: 0,278 ± 0,008
DL50, i.v., Ratte (Ratte [3]): 2,6 g Jod/kg
Ratte, pericerebral, ED50 (Ratte [4]): 6,35 (5,11-7,44) mg Jod/kg
dose excreted at 0.5 h (in vivo [5]): 59.4%
dose excreted at 3 h (in vivo [5]): 91.5%
fraction unbound [6]: 0.23

SMILES: CNC(=O)c1c(I)c(NC(=O)CCCCCCCCC(=O)Nc2c(I)c(C(=O)O)c(I)c(C(=O)NC)c2I)c(I)c(C(=O)O)c1I [D, Iosefamsäure]
Konzentration in der Leber (Leber [7]): nicht mehr genügende
Konzentration in der Leber (Leber [8]): noch ausreichende
maximale Anreicherung in der Leber des Hundes (Leber des Hundes): 22,8 EMI-Units
maximale Anreicherung in der Leber des Hundes, min. p. appl. (Leber des Hundes; time of maximum enrichment): 80 min. p. appl.

Tmax (in vivo [9]): 1.5 h
SMILES: CNC(=O)c1c(I)c(NC(=O)COCC(=O)N(C)c2c(I)cc(I)c(C(=O)O)c2I)c(I)c(C(=O)O)c1I [E, 3-Oxapentan-disäure-l-(3-carboxy-2,4,6-trijod-N-methylanilid)-5-(3-carboxy-5N-methylcarbamoyl-2,4,6-trijodanilid)]
maximale Anreicherung in der Leber des Hundes (Leber des Hundes): 42,1 EMI-Units

SMILES: CNC(=O)c1c(I)c(NC(=O)CCCCC(=O)Nc2c(I)cc(I)c(C(=O)O)c2I)c(I)c(C(=O)O)c1I [Verbindung A, Hexandisäure-1-(3-carboxy-2,4,6-trijod-anilid)-6-(3-carboxy-5-N-methylcarbamoyl-2,4,6-trijodanilid)]
Ratte, intrazisternal, ED50 (Ratte [1]): 15,6 (11,5-21,1) mg Jod/kg
Verteilungskoeffizient Butanol/Wasser pH 7.4 [2]: 0,083 ± 0,001
DL50, i.v., Ratte (Ratte [3]): 5,5 g Jod/kg
Ratte, pericerebral, ED50 (Ratte [4]): 17,1 (11,8-23,6) mg Jod/kg
dose excreted at 0.5 h (in vivo [5]): 61.3%
dose excreted at 3 h (in vivo [5]): 85.9%
fraction unbound [6]: 0.57
